Reference: PubChem BioAssay (NCI)
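Five concentrations, 48 hours, 96-well plates. TGI denotes the concentration required for complete inhibition of growth.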

Tests used:
Assay in all cases: NCI tumour cell line growth inhibition, 48 h
[1] = test system: SW-620 colon
[2] = test system: HL-60(TB) leukemia
[3] = test system: EKVX NSCLC
[4] = test system: KM12 colon
[5] = test system: LOX IMVI melanoma
[6] = test system: CAKI-1 renal
[7] = test system: CCRF-CEM leukemia
[8] = test system: UACC-62 melanoma
[9] = test system: SF-539 CNS
[10] = test system: U251 CNS
[11] = test system: DU-145 prostate
[12] = test system: MOLT-4 leukemia
[13] = test system: NCI-H522 lung
[14] = test system: SK-OV-3 ovarian
[15] = test system: A549 NSCLC
[16] = test system: HCC-2998 colon
[17] = test system: SF-268 CNS
[18] = test system: NCI-H226 lung
[19] = test system: T-47D breast
[20] = test system: SK-MEL-28 melanoma
[21] = test system: SN12C renal
[22] = test system: NCI/ADR-RES ovarian
[23] = test system: MDA-MB-231 breast
[24] = test system: K-562 leukemia
[25] = test system: MDA-N
[26] = test system: A498 renal
[27] = test system: 786-0 renal
[28] = test system: SNB-75 CNS
[29] = test system: COLO 205 colon
[30] = test system: MDA-MB-435
[31] = test system: SK-MEL-5 melanoma
[32] = test system: PC-3 prostate
[33] = test system: MCF7 breast
[34] = test system: RXF 393 renal
[35] = test system: OVCAR-4 ovarian
[36] = test system: HOP-62 NSCLC
[37] = test system: UO-31 renal
[38] = test system: SNB-19 CNS
[39] = test system: RPMI-8226 leukemia
[40] = test system: HT29 colon
[41] = test system: SF-295 CNS
[42] = test system: OVCAR-5 ovarian
[43] = test system: HOP-92 NSCLC
[44] = test system: MALME-3M melanoma
[45] = test system: IGROV1 ovarian
[46] = test system: OVCAR-3 ovarian
[47] = test system: HCT-116 colon
[48] = test system: HS 578T breast
[49] = test system: NCI-H23 lung
[50] = test system: HCT-15 colon
[51] = test system: BT-549 breast
[52] = test system: NCI-H460 lung
[53] = test system: ACHN renal
[54] = test system: SR leukemia
[55] = test system: TK-10 renal
[56] = test system: OVCAR-8 ovarian
[57] = test system: UACC-257 melanoma
[58] = test system: SK-MEL-2 melanoma
[59] = test system: M14 melanoma

Measured: TGI

Nc1nc(Cl)cc(NCC2(CO)CC(O)C2)n1 (stereo not given)
not listed: [59]
> 100 µM: all other assays above

CC1(c2nc3ccccc3[nH]2)CCC(CO)C(C)(C)O1 (stereo not given)
33.7 µM: [54]
not listed: [26] | [52]
> 100 µM: all other assays above
